Measurements as given in the supplement of paper PMC10307832.

Key:
Experiment in all cases: relative viability (nuclei count vs DMSO), 5 days (fraction); higher = more cells survive
[1] = compound: CC1=C(C(=O)N2C=CSC2=N1)CCN3CCC(=C(C4=CC=CC=C4)C5=CC=C(C=C5)F)CC3 + CS(=O)(=O)CCNCc1ccc(-c2ccc3ncnc(Nc4ccc(OCc5cccc(F)c5)c(Cl)c4)c3c2)o1 [Lapatinib] (partner 2 µM)
Procedure, shortened: (§1)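 A single step with final 0.05% Triton X-100, 1% formaldehyde and 1 ug/ml Hoechst fixed the cells and stained nuclei 5 days after treatment. Lung cancer cell lines in 1536-well plates had been treated by pin tool the day after seeding with one drug alone or a fixed anchor-drug dose plus five library-drug doses (not always all listed) in √10 steps, and nuclei were counted on 4× images. Relative viability is the ratio of nuclei in treated wells to nuclei in vehicle wells, taken as the median of duplicate plates.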

[2] = compound: CC1=C(C(=O)N2C=CSC2=N1)CCN3CCC(=C(C4=CC=CC=C4)C5=CC=C(C=C5)F)CC3 + C[C@@H](Oc1cc(-c2cnn(C3CCNCC3)c2)cnc1N)c1c(Cl)ccc(F)c1Cl [Crizotinib] (partner 1 µM)
Procedure, shortened: as §1

[3] = compound: CC1=C(C(=O)N2C=CSC2=N1)CCN3CCC(=C(C4=CC=CC=C4)C5=CC=C(C=C5)F)CC3 + Cc1cc(Nc2cc(N3CCN(C)CC3)nc(Sc3ccc(NC(=O)C4CC4)cc3)n2)n[nH]1 [Tozasertib] (partner 0.1 µM)
Procedure, shortened: as §1

[4] = compound: CC1=C(C(=O)N2C=CSC2=N1)CCN3CCC(=C(C4=CC=CC=C4)C5=CC=C(C=C5)F)CC3 + Nc1ncn([C@H]2C[C@H](O)[C@@H](CO)O2)c(=O)n1 [Decitabine] (partner 2 µM)
Procedure, shortened: as §1

| Cell Line | relative viability ([1]; first compound 0.08 µM) | relative viability ([1]; first compound 0.253 µM) | relative viability ([1]; first compound 0.8 µM) | relative viability ([1]; first compound 2.53 µM) | relative viability ([1]; first compound 8 µM) | relative viability ([2]; first compound 0.08 µM) | relative viability ([2]; first compound 0.253 µM) | relative viability ([2]; first compound 0.8 µM) | relative viability ([2]; first compound 2.53 µM) | relative viability ([2]; first compound 8 µM) | relative viability ([3]; first compound 0.08 µM) | relative viability ([3]; first compound 0.253 µM) | relative viability ([3]; first compound 0.8 µM) | relative viability ([3]; first compound 2.53 µM) | relative viability ([3]; first compound 8 µM) | relative viability ([4]; first compound 0.08 µM) | relative viability ([4]; first compound 0.253 µM) | relative viability ([4]; first compound 0.8 µM) | relative viability ([4]; first compound 2.53 µM) | relative viability ([4]; first compound 8 µM) |
| --- | --- | --- | --- | --- | --- | --- | --- | --- | --- | --- | --- | --- | --- | --- | --- | --- | --- | --- | --- | --- |
| NCI-H23 | 0.932 | 0.829 | 1.04 | 1.35 | 0.621 | 0.467 | 0.505 | 0.454 | 0.372 | 0.404 | 0.365 | 0.386 | 0.214 | 0.307 | 0.316 | 0.355 | 0.308 | 0.332 | 0.323 | 0.119 |
| NCI-H322M | 0.581 | 0.613 | 0.612 | 0.554 | 0.611 | 0.732 | 0.948 | 0.878 | 0.696 | 0.834 | 0.487 | 0.468 | 0.443 | 0.561 | 0.529 | 0.719 | 0.781 | 0.688 | 0.814 | 0.767 |
| NCI-H358 | 0.442 | 0.535 | 0.427 | 0.44 | 0.404 | 0.455 | 0.327 | 0.413 | 0.548 | 0.609 | 0.0851 | 0.0942 | 0.0998 | 0.129 | 0.112 | 0.211 | 0.235 | 0.244 | 0.256 | 0.202 |
| NCI-H460 | 0.629 | 1.32 | 1.06 | 0.93 | 0.496 | 0.597 | 1.16 | 1.09 | 0.794 | 0.188 | 0.272 | 0.57 | 0.392 | 0.409 | 0.252 | 0.581 | 0.445 | 0.555 | 0.572 | 0.157 |
| NCI-H520 | 0.78 | 0.693 | 0.942 | 1.1 | 0.684 | 0.679 | 0.608 | 0.858 | 0.58 | 0.476 | 0.514 | 0.435 | 0.439 | 0.464 | 0.401 | 0.471 | 0.565 | 0.519 | 0.515 | 0.445 |
| NCI-H596 | 1.05 | 1.17 | 1.06 | 0.989 | 1.06 | 1.01 | 1.13 | 0.957 | 1.03 | 0.949 | 0.757 | 0.757 | 1.14 | 0.877 | 0.516 | 0.908 | 0.939 | 1.06 | 1.01 | 0.761 |
| NCI-H647 | 1.06 | 1.05 | 1.19 | 1.26 | 0.319 | 1.09 | 1.61 | 1.01 | 1.34 | 0.476 | 0.267 | – | 0.437 | 0.105 | 0.141 | 0.389 | 0.412 | 0.378 | 0.505 | 0.297 |
| NCI-H650 | – | 0.883 | 0.838 | 1.03 | 0.646 | – | 0.791 | 0.377 | 0.718 | 0.608 | 0.695 | 0.801 | 0.748 | 0.723 | 0.689 | 0.342 | 0.363 | 0.339 | 0.319 | 0.274 |
| NCI-H661 | 0.428 | 0.469 | 0.538 | 0.39 | 0.355 | 0.848 | 1.01 | 1.21 | 1 | 0.801 | 0.341 | 0.35 | 0.36 | 0.383 | 0.361 | 0.528 | 0.623 | 0.55 | 0.528 | 0.387 |
| NCI-H727 | 0.778 | 0.674 | 0.757 | 0.984 | 0.553 | 0.846 | 0.934 | 0.741 | 0.948 | 0.59 | 0.511 | 0.589 | 0.625 | 0.739 | 0.598 | 0.861 | 0.974 | 0.888 | 1.03 | 0.792 |
| NCI-H838 | 0.806 | 0.826 | 0.917 | 1.43 | 0.596 | 0.583 | 0.854 | 0.837 | 0.925 | 0.616 | 0.267 | 0.286 | 0.27 | 0.266 | 0.244 | 0.488 | 0.459 | 0.472 | 0.547 | 0.414 |
| NCI-H1355 | 1.04 | 0.981 | 1.03 | 0.997 | 0.885 | 1.12 | 1.16 | 1.04 | 1.17 | 0.712 | 0.623 | 0.544 | 0.52 | 0.496 | 0.532 | 0.38 | 0.382 | 0.369 | 0.354 | 0.368 |
| NCI-H1437 | – | 0.718 | 0.88 | 0.928 | 0.487 | – | 0.902 | 0.978 | 1.03 | 0.604 | 0.399 | 0.35 | 0.433 | 0.43 | 0.36 | 0.568 | 0.62 | 0.616 | 0.613 | 0.39 |
| NCI-H1650 | 0.685 | 0.891 | 0.709 | 0.925 | 0.579 | 0.892 | 1.14 | 0.957 | 1.01 | 0.872 | 0.402 | 0.428 | 0.463 | 0.372 | 0.363 | 0.372 | 0.485 | 0.505 | 0.435 | 0.329 |
| NCI-H1651 | 0.876 | 0.759 | 0.912 | 1.02 | 0.514 | 0.83 | 0.829 | 0.891 | 0.971 | 0.773 | 0.689 | 0.611 | 0.683 | 0.793 | 0.379 | 0.644 | 0.604 | 0.587 | 0.597 | 0.526 |
| NCI-H1666 | 0.565 | 0.704 | 0.584 | 0.621 | 0.486 | 0.909 | 0.939 | 0.839 | 0.937 | 0.866 | 0.596 | 0.591 | 0.655 | 0.642 | 0.493 | 0.714 | 0.786 | 0.678 | 0.873 | 0.616 |
